Data reported in patent US20060079453A1, “Hla binding peptides and their uses” (priority 2002, published 2006).
No end group written: not given here.

Experiments:
Assay in all cases: biochemical
Assay type in all cases: binding
HLA-A*6801 = HLA-A*6801 (Homo sapiens, UniProt P04439, A269V/D185E/E176V/E277Q/E87N/F33Y/G231S/I121M/I166T/I218V/L180W/L300P/L318F/N151K/P208A/P217A/Q86R/R169H/T345S)
HLA-A*3101 = HLA-A*3101 (Homo sapiens, UniProt P04439, A270S/D185E/E176V/E277Q/F33T/G231S/G80R/H175R/I121M/I218V/I322F/K168Q/L300P/L318F/M331R/P217A/Q94H/R138Q/T323A/T345S/T97I/V358M)
HLA-A*3301 = HLA-A*3301 (Homo sapiens, UniProt P04439, A270S/D185E/E176V/E277Q/E87N/F33T/G231S/H175R/I121M/I218V/I322F/K168Q/K210R/L300P/L318F/M331R/P217A/Q86R/Q94H/R138Q/T323A/T345S/T97I/V358M/Y195H)
HLA-A*1101 = HLA-A*1101 (Homo sapiens, UniProt P04439, A114D/D185E/E176A/F33Y/L180Q/S129P/T187R)
HLA-A*0301 = HLA-A*0301 (Homo sapiens, UniProt P04439)

Sequence | IC50 (HLA-A*6801) [nM] | IC50 (HLA-A*3101) [nM] | IC50 (HLA-A*3301) [nM] | IC50 (HLA-A*1101) [nM] | IC50 (HLA-A*0301) [nM]
FISFYLINK | 18 | 2190 | 1460 | 9 | 19
STLPGPGPGRR | 25 | 61 | 1890 | 19 | 297
AVKDLFVVYR | 3.3 | 3.1 | 9.1 | 91 | 1730
PVRPQVPLR | 7010 | 332 | 3440 | 16100 | > 10900
VTIKIEGQLK | 27 | 5080 | 58000 | 69 | 361
STLGPGPGVRR | 3.8 | 42 | 670 | 19 | 892
GVSGPGPGK | 209 | > 11200 | > 112000 | 5.8 | 13
SLGPGPGTK | 3520 | 4390 | 152000 | 5.8 | 7.8
KTLGISYGR | 36 | 21 | 502 | 9.8 | 53
RVHFASPLH | 7620 | 572 | > 123000 | 60 | 12
DTLEQTLKR | 110 | 38100 | 9.2 | 12900 | 31300
LTISYGRKK | 63 | 13900 | 59700 | 69 | 584
SVYGETLER | 17 | 235 | 160 | 11 | 44
RVRRRRWRAR | > 36900 | 265 | 3760 | > 16800 | 2440
AVKDLCIVYR | 6.5 | 7.3 | 8 | 66 | 841
KQLCDLLIK | 11900 | 340 | 46400 | 65 | 226
VTLDIQSTK | 237 | 2050 | 1950 | 13 | 78
YSVYGTTLER | 19 | 2140 | 6900 | 96 | 430
VTVRVGGQLK | 141 | 8240 | > 72300 | 19 | 216
KTLGISYGRK | 1630 | 841 | 42400 | 79 | 36
GTRQARRNK | 59700 | 9710 | 46000 | 749 | 67
LTFYSKVRK | 13 | 87 | 3380 | 8 | 3.8
LLFYSKVRKYR | 15 | 7 | 11 | 94 | 28
ETNPFGICK | 14 | 29100 | 804 | 100 | 9590
FVVYRDSIPK | 30 | 6220 | 146 | 81 | 265
EVYNFACTELK | 2.7 | 484 | 5.9 | 117 | 1620
EVLEIPLIDLR | 27 | 36400 | 72 | 16600 | > 47000

Sequence | IC50 (HLA-A*6801) [nM] | IC50 (HLA-A*3101) [nM] | IC50 (HLA-A*3301) [nM] | IC50 (HLA-A*1101) [nM] | IC50 (HLA-A*0301) [nM]
RLFEESLGIR | 409 | 297 | 788 | 1100 | 64
TLYQIQVMKR | 90 | 397 | 558 | 164 | 361
AVADLTVVYR | 7.3 | 31 | 892 | 11 | 489
YTFVFADLR | 2.9 | 20 | 6.6 | 8.1 | 3630
KQRFHNIRGK | 22900 | 573 | 35200 | 1950 | 55
QQNQESKIMK | 21300 | 28100 | > 17400 | 77 | 3470
VTVYGPGPGWK | 206 | > 9000 | > 103000 | 18 | 1150
TLEQTVKK | 21400 | > 100000 | > 75300 | 203 | 4770
SVCRSSRTR | 17 | 249 | 547 | 97 | 323
GTRQARRNRK | 7790 | 3800 | > 42300 | 634 | 100
DTIPHAACHK | 23 | 1760 | 9.3 | 701 | 2370
KISEYRHYNR | 1580 | 17 | 161 | 140 | 58
RLYSKVSEFR | 73 | 24 | 690 | 131 | 6.4
ETVRHFPR | 86 | 1000 | 81 | 4180 | > 13500
VTVYYGPGPGK | 30 | 9720 | 102000 | 24 | 310
STGPGPGVVRR | 5.8 | 95 | 5980 | 367 | 18700
GVDGLIYSK | 5100 | > 17700 | > 29700 | 47 | 10100
ALNAAAAAK | 80000 | 11000 | > 72500 | 21 | 74
VTVRIGGMQK | 155 | 2580 | 44400 | 13 | 54
NTLEQTVKR | 8.6 | 2270 | 18 | 1150 | 20400
YLFNQHIKK | 14 | 4920 | 7970 | 7.8 | 14
KFSEFRWYRY | 12800 | 34 | 856 | 1590 | 4750
KQENWYSLKK | 4790 | 6330 | > 136000 | 178 | 608
TSVHEIELR | 12 | 1040 | 5950 | 872 | > 64300
LVTDLRIVYR | 6.8 | 20 | 150 | 648 | 3870
NSVYGETLER | 18 | 163 | 1330 | 25 | 150
